Laboratory results from paper PMC11522901, “Translation of Deoxyribonucleic Acid into Synthetic Alpha Helical Peptides for Darwinian Evolution” (JACS Au, 2024).

System: GST-MDM2
Assay: Binder/nonbinder affinity selection on GST-MDM2 beads with plate reader readout
Type: binding
Conditions: 1:1 mixture, 500 nM each, 2 h at 4 °C with GST-MDM2 on GSH beads, four washes, elution 95 °C 5 min
Description: We next investigated whether a templated ligation could yield peptides in an α-helical conformation. Since CD-based analyses would be difficult to interpret given the PNA, we opted to assess the helical nature of the peptide using binding to a target that requires this conformation. To this end, we used MDM2, an important regulator of the p53 tumor suppressor, which binds to an α-helix of p53[47] and has been a testing ground for stapling technologies[48]−[52] and screening technologies.[53]−[56] Additionally, several X-ray diffraction structures of the MDM2-peptide complex have been reported, supporting the importance of the helicity of the peptide.[51],[57],[58] […] Affinity selection of this mixture against GST-MDM2 immobilized on GSH beads was monitored by fluorescence quantification of the supernatant solution. […]
Ten μL of MagneGST glutathione particles (Promega #V8611) were blocked with 1 mg/mL BSA in PBS-CHAPS (10 mM phosphate buffer, 2.7 mM KCl, and 137 mM NaCl, pH 7.4, with 0.05% CHAPS) three times at room temperature for 5 min. […] The initial library, post-incubation library, washes, and elution were analyzed by a plate reader (SpectraMax i3x, in black 96-well microtiter plates (Thermo Scientific #267342)). […]

Substance: PNA- Gly Ser Nle Cba Gln Ala Trp Tyr Glu Nle Phe Thr Leu Gly -PNA (head to tail) [binder]
- recovery in heat elution after affinity selection (fluorescence): strong recovery
